Measurements published in BindingDB's records for doi:10.1021/jm400930e (Ocean University of China, 2013).

Assay: Modulation of p-gp (unknown origin) transfected in human MDA435/LCC6MDR cells assessed as reversal of paclitaxel resistance

Row | Structure (SMILES) | EC50
1 | COc1ccc(C2=C(c3cc(OC)c(OC)c(OC)c3)C(=O)N(CC(=O)c3ccc(OCc4ccccc4)c(OC)c3)C2=O)cc1OC | 110 nM
2 | COc1ccc(C2=C(c3ccc(OC)c(OC)c3)C(=O)N(CC(=O)c3ccc(OCc4ccccc4)c(OC)c3)C2=O)cc1OC | 94 nM
